These results are taken from patent US8658638B2, “Mineralocorticoid receptor antagonist and methods of use” (priority 2009, dated 2014).

Assay [1] relates to uni-nephrectomized Sprague Dawley rats. The experiment in a line: In vivo model of aldosterone mediated renal disease. Conditions: 10 mg/kg/day x 28 days, oral gavage, aldosterone infusion, 6% salt diet, rat. The procedure: Male uni-nephrectomized Sprague Dawley rats (240-280 g) are housed individually with ad lib house water and rodent 5001 diet for one week. After acclimation, baseline 24 h urine samples are collected and analyzed for total urine protein and creatinine. Animals are randomized via body weight and baseline urine protein into study groups. Baseline serum is taken by tail-clip and analyzed for blood urea nitrogen (BUN), creatinine, and electrolytes. After baseline samples are taken, all rats with the exception of the control group are maintained on a diet containing 6% salt, and drinking water containing 0.3% KCl throughout the study duration. […] Alza mini-pumps to deliver 2.5 μl/h×28 days of d-aldosterone in 0.01% DMSO at 0.75 μg/h, s.c. are implanted in non-control animals (e.g Test Compound group and Vehicle only group) under isoflourane anesthesia. Test compound, in a vehicle comprising 1% carboxy methylcellulose (CMC)/0.25% polysorbate 80, or vehicle alone, is then administered by once daily oral gavage (10 mL/kg) beginning the day after aldosterone implantation. Repeat urine samples are collected after 2 and 4 weeks of compound or vehicle alone administration and analyzed for total urine protein and creatinine. At study termination, pharmacokinetic samples are obtained at 8 timepoints (0.5, 1, 2, 3, 6, 8, 12 and 24 h). […]

In assay [2] the target is T1, human MR (mineralocorticoid receptor) (Homo sapiens, UniProt P08235).
T1 construct: expressed in transfected cells; host or cells: HEK293 (293-MR lysate)
T1 sequence (P08235 1-984): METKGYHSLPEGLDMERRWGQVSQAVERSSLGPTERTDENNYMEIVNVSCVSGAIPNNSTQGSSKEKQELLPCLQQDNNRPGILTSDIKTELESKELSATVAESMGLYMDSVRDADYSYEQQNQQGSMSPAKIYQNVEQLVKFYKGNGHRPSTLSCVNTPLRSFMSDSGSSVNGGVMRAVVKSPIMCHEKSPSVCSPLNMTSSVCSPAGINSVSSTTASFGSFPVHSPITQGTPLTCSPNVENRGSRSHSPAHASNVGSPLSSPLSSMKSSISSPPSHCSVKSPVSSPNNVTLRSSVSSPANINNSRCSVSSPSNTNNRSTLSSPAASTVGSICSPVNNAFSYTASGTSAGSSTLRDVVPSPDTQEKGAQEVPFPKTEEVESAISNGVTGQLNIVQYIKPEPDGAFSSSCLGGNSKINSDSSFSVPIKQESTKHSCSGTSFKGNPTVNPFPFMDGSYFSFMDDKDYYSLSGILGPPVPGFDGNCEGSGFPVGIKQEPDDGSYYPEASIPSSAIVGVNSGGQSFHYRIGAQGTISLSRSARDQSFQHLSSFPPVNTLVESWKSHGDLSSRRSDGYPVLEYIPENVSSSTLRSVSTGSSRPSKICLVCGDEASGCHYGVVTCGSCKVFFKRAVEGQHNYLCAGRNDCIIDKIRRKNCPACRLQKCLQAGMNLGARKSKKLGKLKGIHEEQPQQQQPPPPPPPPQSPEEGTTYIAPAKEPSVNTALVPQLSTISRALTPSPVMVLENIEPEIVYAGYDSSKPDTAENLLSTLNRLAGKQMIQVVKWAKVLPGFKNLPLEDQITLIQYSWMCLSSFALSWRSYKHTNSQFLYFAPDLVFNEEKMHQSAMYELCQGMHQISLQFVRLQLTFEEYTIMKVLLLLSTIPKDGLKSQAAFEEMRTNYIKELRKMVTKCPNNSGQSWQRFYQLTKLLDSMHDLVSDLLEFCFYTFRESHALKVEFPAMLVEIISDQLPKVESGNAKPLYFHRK
Kind of assay: Steroid nuclear hormone receptor binding assay, MR. Conditions: [3H]-aldosterone, HEK293 lysate overexpressing human MR. The method, then: Cell lysates from human embryonic kidney HEK293 cells overexpressing human MR (mineralocorticoid receptor), GR (glucocorticoid receptor), AR (androgen receptor), or PR (progesterone receptor) are used for receptor-ligand competition binding assays to determine Ki values.
Briefly, steroid receptor competition binding assays are run in a buffer containing 20 mM HEPES buffer (pH=7.6), 0.2 mM EDTA, 75 mM NaCl, 1.5 mM MgCl2, 20% glycerol, 20 mM sodium molybdate, 0.2 mM DTT (dithiothreitol), 20 μg/mL aprotinin and 20 μg/mL leupeptin (assay buffer). Typically, steroid receptor binding assays include radio-labeled ligands, such as 0.25 nM [^3H]-aldosterone for MR binding, 0.7 nM [^3H]-dexamethasone for GR binding, 0.36 nM [^3H]-methyltrienolone for AR binding, and 0.29 nM [^3H]-methyltrienolone for PR binding, and either 20 μg 293-MR lysate, 20 μg 293-GR lysate, 22 μg 293-AR lysate, or 40 μg 293-PR lysate per well. Assays are typically run in 96-well format. Competing test compounds are added at various concentrations ranging from about 0.01 nM to 10 μM. Non-specific binding is determined in the presence of 500 nM aldosterone for MR binding, 500 nM dexamethasone for GR binding, or 500 nM methyltrienolone for AR and PR binding. […] After an incubation of 2 hours, plates are read in a Wallac Microbeta counter. […]

Regarding `O=c1[nH]c2cc(/C=C3\c4ccccc4COc4cc(F)ccc43)ccc2n1[C@@H]1C[C@@H]2COCCN2C1` [Compound (I), 5-((E)-(3-fluorodibenzo[b,e]oxepin-11(6H)-ylidene)methyl)-1-((7R,8aR)-hexahydro-1H-pyrrolo[2,1-c][1,4]oxazin-7-yl)-1H-benzo[d]imidazol-2(3H)-one], the “reduction of urinary protein excretion compared to vehicle treated animals” value in assay [1] is reported as “about 60%”. Further, the Ki (usually the dissociation constant of the complex between target and ligand, obtained from inhibition or displacement) in assay [2] was around 0.4 nM.
